Test results as given in article PMC11334105, “Contribution of Noncovalent Recognition and Reactivity to the Optimization of Covalent Inhibitors: A Case Study on KRas^G12C” (ACS Chemical Biology, 2024).
Like-named read-outs stand apart in the source and are kept apart here.

Legend:
[1] = target: T1, KRAS^G12C (Homo sapiens, UniProt P01116, G12C); assay: MANT-GDP nucleotide exchange assay (SOS1, GppNHp); assay type: biochemical
Protocol: The reaction was stopped by adding MgCl2 to a final concentration of 10 mM, then incubated at 20 °C for 30 min. The unbound MANT-GDP was removed using the NAP-5 column equilibrated with nucleotide exchange buffer (40 mM HEPES-NaOH (pH 7.5), 50 mM NaCl, 10 mM MgCl2, 2 mM Dithiothreitol DTT).

[2] = system: H358; assay: Cell proliferation assay (MTT), KRAS^G12C expressing cell; conditions: Homo sapiens, NCI-H358, 72 h, read-out: IC50 anti-proliferative activity
[3] = system: MiaPaca2; assay: as above; conditions: Homo sapiens, MIA PaCa-2, 72 h, read-out: IC50 anti-proliferative activity
[4] = system: H1792; assay: as above; conditions: Homo sapiens, NCI-H1792, 72 h, read-out: IC50 anti-proliferative activity
[5] = target: KRAS^wt (Homo sapiens, UniProt P01116); assay: MANT-GDP nucleotide exchange assay against wild type
Protocol: In the experiments, we used the GTP analogue, GppNHp, which cannot be hydrolyzed by Ras.
After the incubation, the MANT-GDP KRAS-inhibitor mixtures were loaded into a black 384-well microplate in the presence or absence of the different inhibitor molecules in various concentrations. The nucleotide exchange reaction was initiated by adding a 100-fold molar excess of GppNHp (catalog no.: G0635, Sigma-Aldrich), a nonhydrolyzable GTP analog, and the SOS1 exchange domain (catalog no.: GE02, Cytoskeleton, Inc.) protein in 0.2 μM final concentration. The change in fluorescence intensity was measured every 30 s in RT for 60 min on an EnvSpire plate reader (PerkinElmer, Inc.). The measured values were fitted to a single exponential function by using GraphPad Prism 10 software. The derived rates were normalized to the RAS-SOS1 minus RAS-only samples from which the IC50 values were calculated from three independent experiments with each inhibitor using GraphPad Prism 10 software.

[6] = target: T1, KRAS^G12C; assay: LC-MS occupancy measurements (KI and kinact determination); assay type: binding; conditions: for kobs: 5 μM KRASG12C, duplicated experiments; for experimental ΔG^# (KRAS^G12C): free energy barrier calculated from kinact; for experimental ΔGbind: obtained as RT ln(KI) with KI in M units
[7] = HPLC-based GSH reactivity and stability assay; assay type: physicochemical; conditions: for half-life at 250 μM: 5 mM glutathione, PBS pH 7.4, corrected for aqueous degradation, mean ± SD, n = 2, read-out: t1/2 GSH (converted); for experimental ΔG^#(GSH): free energy barrier calculated from t1/2 and GSH^– concentration
Protocol: The cysteine reactivity of the compounds was first assessed in a surrogate kinetic assay.[25],[26] Glutathione (GSH), a cysteine surrogate, was used in a large excess to ensure quasi-first-order reaction kinetics.
The sample was eluted with gradient elution using eluent A (0.1% FA in H2O) and eluent B (0.1% FA in ACN). The column temperature was always kept at 30 °C; the injection volume was 20 μL, the flow rate was set to 1.5 mL/min, and a Reprospher C18 (5 μm, 100 mm × 3 mm) column was used along with the following gradient. […] The AUC (area under the curve) values were determined via the integration of HPLC chromatograms and then corrected with the internal standard. The fragments’ AUC values were subjected to ordinary least-squares (OLS) linear regression, and to compute the important parameters (kinetic rate constant and half-life time), an Excel sheet was applied. The data are expressed as means of duplicate determinations. The kinetic rate constant for the degradation and corrected GSH reactivity were calculated as follows. The reaction half-life for pseudo-first-order reactions (t1/2) is ln 2/k, where k is the reaction rate. In the case of competing reactions (reaction with GSH and degradation), the apparent reaction rate is kapp = kdeg + kGSH. When half-lives are measured experimentally, t1/2(app) = ln 2/(kapp) = ln 2/(kdeg + kGSH). In our case, the corrected kdeg and kapp (regarding blank and GSH-containing samples, respectively) can be calculated by the linear regression of the measured kinetic data points. The corrected kGSH is calculated as kapp – kdeg, and finally, the half-life is determined using the equation t1/2 = ln 2/k.

[8] = target: KRAS^G12C; conditions: published value ref 46; cited from earlier work
[9] = KRAS^G12C, 60 min incubation with inhibitor, mean ± SD, n = 3, read-out: IC50 inhibition of nucleotide exchange
[10] = fit of kobs vs concentration, MS occupancy, mean ± SD, n = 2
[11] = fit of kobs vs concentration, MS occupancy, mean ± SD, n = 2, read-out: KI
[12] = PBS buffer with 5 mM glutathione (GSH)

Row | Compound | IC50 [1, 9] | IC50 [2] | IC50 [3] | IC50 [4] | IC50 [5] | kinact/KI [6] | kobs ([6]; 20 μM inhibitor) | kobs ([6]; 40 μM inhibitor) | kobs ([6]; 80 μM inhibitor) | kobs ([6]; 160 μM inhibitor) | kinact [6, 10] | Ki [6, 11] | experimental ΔG^# (KRAS^G12C) [6] | experimental ΔGbind [6] | half-life at 250 μM [7, 12] | experimental ΔG^#(GSH) [7] | Ki [6] | half-life at 250 μM ([7]; buffer) | IC50 [1] | kinact/KI [8]
1 | C=CC(=O)N1CCN(c2ncnc3cc(-c4c(O)cccc4F)c(Cl)cc23)CC1 [1a, 1-(4-(6-Chloro-7-(2-fluoro-6-hydroxyphenyl)quinazolin-4-yl)piperazin-1-yl)prop-2-en-1-one] | 0.827 ± 0.137 µM | 2.3 µM | 1.8 µM | 16.2 µM | – | – | – | – | – | – | – | – | – | – | – | – | – | – | – | –
2 | C=CC(=O)N1CCN(c2nc(OCC3CCCN3C)nc3cc(-c4c(O)cccc4F)c(Cl)cc23)CC1 (centres unmarked) [1b, 1-(4-(6-Chloro-7-(2-fluoro-6-hydroxyphenyl)-2-((1-methylpyrrolidin-2-yl)methoxy)quinazolin-4-yl)piperazin-1-yl)prop-2-en-1-one] | 0.52 ± 0.108 µM | 1.1 µM | 0.53 µM | 30.1 µM | 177 µM | – | – | – | – | – | – | – | – | – | – | – | – | – | – | –
3 | O=C(CCl)N1CCN(c2ncnc3cc(-c4c(O)cccc4F)c(Cl)cc23)CC1 [2a, 2-Chloro-1-{4-[6-chloro-7-(2-fluoro-6-hydroxyphenyl)-quinazolin-4-il]piperazine-1-yl}ethane-1-one] | 0.305 ± 0.04 µM | 2.7 µM | 3.1 µM | 2.9 µM | – | – | – | – | – | – | – | – | – | – | – | – | – | – | – | –
4 | CN1CCCC1COc1nc(N2CCN(C(=O)CCl)CC2)c2cc(Cl)c(-c3c(O)cccc3F)cc2n1 (centres unmarked) [2b, 2-Chloro-1-(4-(6-chloro-7-(2-fluoro-6-hydroxyphenyl)-2-((1-methylpyrrolidin-2-yl)methoxy)quinazolin-4-yl)piperazin-1-yl)ethan-1-one] | 0.642 ± 0.115 µM | 1.8 µM | 3.2 µM | 1.8 µM | – | – | – | – | – | – | – | – | – | – | – | – | – | – | – | –
5 | O=C(N1CCN(c2ncnc3cc(-c4c(O)cccc4F)c(Cl)cc23)CC1)n1ccnc1 [3a, (4-(6-Chloro-7-(2-fluoro-6-hydroxyphenyl)quinazolin-4-yl)piperazin-1-yl)(1H-imidazol-1-yl)methanone] | 67.4 ± 11.3 µM | 27.4 µM | 20.4 µM | 17.9 µM | – | 9.8 ± 4.7 M⁻¹ s⁻¹ | 0.00014 ± 0.00003 s⁻¹ | 0.00021 ± 0.00005 s⁻¹ | 0.00033 ± 0.00004 s⁻¹ | 0.00033 ± 0.00006 s⁻¹ | 0.4 ± 0.1 0.001 s^–1 | 40.9 ± 16.7 µM | 22.0 ± 0.2 kcal/mol | –6.0 ± 0.4 kcal/mol | 35 ± 11 h | 19.6 ± 0.2 kcal/mol | – | – | – | –
6 | CN1CCCC1COc1nc(N2CCN(C(=O)n3ccnc3)CC2)c2cc(Cl)c(-c3c(O)cccc3F)cc2n1 (centres unmarked) [3b, (4-(6-Chloro-7-(2-fluoro-6-hydroxyphenyl)-2-((1-methylpyrrolidin-2-yl)methoxy)quinazolin-4-yl)piperazin-1-yl)(1H-imidazol-1-yl)methanone] | 243 ± 52.4 µM | 9.9 µM | 8.8 µM | 17.7 µM | – | 3.1 ± 0.7 M⁻¹ s⁻¹ | 0.00005 ± 0.00001 s⁻¹ | 0.0006 ± 0.00001 s⁻¹ | 0.00009 ± 0.00001 s⁻¹ | 0.00010 ± 0.00001 s⁻¹ | 0.13 ± 0.01 0.001 s^–1 | 42.2 ± 9.9 µM | 22.7 ± 0.0 kcal/mol | –6.0 ± 0.1 kcal/mol | 40 ± 18 h | 19.7 ± 0.3 kcal/mol | – | – | – | –
7 | O=C(C1CN1)N1CCN(c2ncnc3cc(-c4c(O)cccc4F)c(Cl)cc23)CC1 (centres unmarked) [4a, Aziridin-2-yl(4-(6-chloro-7-(2-fluoro-6-hydroxyphenyl)quinazolin-4-yl)piperazin-1-yl)methanone] | – | 27.1 µM | 19.8 µM | 22.6 µM | – | – | 0.00004 ± 0.00001 s⁻¹ | 0.0006 ± 0.00001 s⁻¹ | 0.00007 ± 0.00001 s⁻¹ | 0.00008 ± 0.00001 s⁻¹ | – | – | 22.9 ± 0.0 kcal/mol | –6.3 ± 0.1 kcal/mol | – | >20.1 kcal/mol | 22.2 ± 1.8 µM | > 72 h | 198 ± 39 µM | –
8 | CN1CCCC1COc1nc(N2CCN(C(=O)C3CN3)CC2)c2cc(Cl)c(-c3c(O)cccc3F)cc2n1 (centres unmarked) [4b, Aziridin-2-yl(4-(6-chloro-7-(2-fluoro-6-hydroxyphenyl)-2-((1-methylpyrrolidin-2-yl)methoxy)quinazolin-4-yl)piperazin-1-yl)methanone] | – | 90 µM | 48.2 µM | 30.8 µM | – | – | 0.00029 ± 0.00018 s⁻¹ | 0.00044 ± 0.00004 s⁻¹ | 0.00072 ± 0.00018 s⁻¹ | 0.00104 ± 0.00002 s⁻¹ | – | – | 21.2 ± 0.1 kcal/mol | –5.4 ± 0.2 kcal/mol | – | >20.1 kcal/mol | 112 ± 30.1 µM | > 72 h | 84.4 ± 18.9 µM | –
9 | C=CC(=O)N1CCN(c2ncnc3c(F)c(-c4c(O)cccc4F)c(Cl)cc23)CC1 [ARS-1620, reference compound] | – | 0.31 µM | 0.14 µM | 10.2 µM | – | – | – | – | – | – | – | – | – | – | – | – | – | – | – | –
10 | C=CC(=O)N1CCN(c2nc(OC[C@@H]3CCCN3C)nc3c(F)c(-c4nc(N)cc(C)c4C(F)(F)F)c(Cl)cc23)[C@@H](C)C1 [Divarasib] | – | – | – | – | – | – | – | – | – | – | – | – | – | – | – | – | – | – | – | 710,000 M^–1 s^–1
